The structures appear in SMILES notation.

As usually defined, the Ki is a dissociation constant, usually derived from enzyme kinetics or from competition with a known ligand.

The first experiment addresses Cholecystokinin receptor type A (Rattus norvegicus) (UniProt P30551). The experiment can be described thus: Tested for binding affinity towards cholecystokinin type A receptor in rat pancreas by displacement of [3H]pCCK-8 radioligand. A general note: Displacement assays read how much labelled ligand stays bound in the presence of the test substance.
For `CC(Cc1ccc2ccccc2c1)(NC(=O)OC1[C@H]2C[C@@H]3C[C@@H](C[C@H]1C3)C2)C(=O)N(CCc1ccccc1)CC(=O)O` (stereo partly drawn) [{[2-(Adamantan-2-yloxycarbonylamino)-2-methyl-3-naphthalen-2-yl-propionyl]-phenethyl-amino}-acetic acid], the affinity corresponds to a Ki of 3010 nM.

For a further experiment, the target named is Gastrin/cholecystokinin type B receptor (Cavia porcellus). The experiment can be described thus: Tested for inhibition of [3H]pCCK-8 specific binding to cholecystokinin type B receptor in guinea pig brain cortex.
`CC(Cc1c[nH]c2ccccc12)(C(=O)OC1[C@H]2C[C@@H]3C[C@@H](C[C@H]1C3)C2)C(=O)N(CCc1ccc(Cl)cc1Cl)CC(=O)O` (stereo partly drawn) [N-Carboxymethyl-N-[2-(2,4-dichloro-phenyl)-ethyl]-2-(1H-indol-3-ylmethyl)-2-methyl-malonamic acid adamantan-2-yl ester] returned a Ki of 12 nM.

`CC(Cc1c[nH]c2ccccc12)(NC(=O)OC1[C@H]2C[C@@H]3C[C@@H](C[C@H]1C3)C2)C(=O)NCc1ccccc1` (stereo partly drawn) [[1-Benzylcarbamoyl-2-(1H-indol-3-yl)-1-methyl-ethyl]-carbamic acid adamantan-2-yl ester] had a Ki of 231 nM.

As to `CC(Cc1c[nH]c2ccccc12)(NC(=O)OC1[C@H]2C[C@@H]3C[C@@H](C[C@H]1C3)C2)C(=O)NCCc1ccc(Cl)cc1Cl` (stereo partly drawn) [[1-[2-(2,4-Dichloro-phenyl)-ethylcarbamoyl]-2-(1H-indol-3-yl)-1-methyl-ethyl]-carbamic acid adamantan-2-yl ester], the inhibitory constant (Ki) was found to be 27 nM.

Take `CC(Cc1c[nH]c2ccccc12)(NC(=O)OC1[C@H]2C[C@@H]3C[C@@H](C[C@H]1C3)C2)C(=O)NCCc1ccc(Br)cc1` (stereo partly drawn) [[1-[2-(4-Bromo-phenyl)-ethylcarbamoyl]-2-(1H-indol-3-yl)-1-methyl-ethyl]-carbamic acid adamantan-2-yl ester]: the Ki amounted to 51 nM.

On to `CC(Cc1c[nH]c2ccccc12)(NC(=O)OC1[C@H]2C[C@@H]3C[C@@H](C[C@H]1C3)C2)C(=O)Nc1ccc2ccccc2c1` (stereo partly drawn) [[2-(1H-Indol-3-yl)-1-methyl-1-(naphthalen-2-ylcarbamoyl)-ethyl]-carbamic acid adamantan-2-yl ester], for which the inhibitory constant (Ki) stood at 402 nM.

Compound `CC(Cc1c[nH]c2ccccc12)(NC(=O)OC1[C@H]2C[C@@H]3C[C@@H](C[C@H]1C3)C2)C(=O)NCC(=O)O` (stereo partly drawn) [[2-(Adamantan-2-yloxycarbonylamino)-3-(1H-indol-3-yl)-2-methyl-propionylamino]-acetic acid] showed a Ki of 986 nM.

`COc1ccc(CCNC(=O)C(C)(Cc2c[nH]c3ccccc23)NC(=O)OC2[C@H]3C[C@@H]4C[C@@H](C[C@H]2C4)C3)cc1` (stereo partly drawn) [{2-(1H-Indol-3-yl)-1-[2-(4-methoxy-phenyl)-ethylcarbamoyl]-1-methyl-ethyl}-carbamic acid adamantan-2-yl ester] yielded an inhibition constant Ki of 115 nM.

`CC(Cc1c[nH]c2ccccc12)(NC(=O)OC1[C@H]2C[C@@H]3C[C@@H](C[C@H]1C3)C2)C(=O)NCCc1ccc([N+](=O)[O-])cc1` (stereo partly drawn) [{2-(1H-Indol-3-yl)-1-methyl-1-[2-(4-nitro-phenyl)-ethylcarbamoyl]-ethyl}-carbamic acid adamantan-2-yl ester] yielded a Ki of 79 nM.

In the case of `CC(Cc1cccc2ccccc12)(NC(=O)OC1[C@H]2C[C@@H]3C[C@@H](C[C@H]1C3)C2)C(=O)N(CCc1ccccc1)CC(=O)O` (stereo partly drawn) [{[2-(Adamantan-2-yloxycarbonylamino)-2-methyl-3-naphthalen-1-yl-propionyl]-phenethyl-amino}-acetic acid], the affinity corresponds to a Ki of 134 nM.

`CC(Cc1c[nH]c2ccccc12)(NC(=O)OC1[C@H]2C[C@@H]3C[C@@H](C[C@H]1C3)C2)C(=O)N(CCc1ccc(Cl)cc1Cl)CC(=O)O` (stereo partly drawn) [{[2-(Adamantan-2-yloxycarbonylamino)-3-(1H-indol-3-yl)-2-methyl-propionyl]-[2-(2,4-dichloro-phenyl)-ethyl]-amino}-acetic acid] displayed a Ki of 37 nM.

`CCOC(=O)CN(CCc1ccccc1)C(=O)C(C)(Cc1c[nH]c2ccccc12)NC(=O)OC1[C@H]2C[C@@H]3C[C@@H](C[C@H]1C3)C2` (stereo partly drawn) [{[2-(Adamantan-2-yloxycarbonylamino)-3-(1H-indol-3-yl)-2-methyl-propionyl]-phenethyl-amino}-acetic acid ethyl ester]: the Ki was determined as 543 nM.

A further experiment shares this target. Described as above. This is another data set of the same source.
In turn, `CC(Cc1c[nH]c2ccccc12)(NC(=O)OC1[C@H]2C[C@@H]3C[C@@H](C[C@H]1C3)C2)C(=O)NCCc1cccc2ccccc12` (stereo partly drawn) [[2-(1H-Indol-3-yl)-1-methyl-1-(2-naphthalen-1-yl-ethylcarbamoyl)-ethyl]-carbamic acid adamantan-2-yl ester] displayed a Ki of 89 nM.

(Values after BindingDB's records for doi:10.1021/jm00072a005 (University of Paris, 1993).)
